Measurements published in US11555036B2, “FGFR4 inhibitor, preparation method therefor and pharmaceutical use thereof” (Abbisko Therapeutics Co., Ltd., priority 2016, dated 2023).

Key:
FGFR4 = FGFR4 (Homo sapiens, UniProt P22455); experiment: FGFR4 Caliper Assay (in vitro biochemical kinase analysis of FGFR4); conditions: read-out: Enzymatic activity FGFR4 IC50
Procedure, shortened: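 Kinase reaction at 30° C for 40 min in 50 mM HEPES pH 7.5, 16 mM MgCl2, 1 mM DTT, 0.6% DMSO, stopped with EDTA. Phosphorylated and unphosphorylated fluorescent peptides separated by Caliper microfluidic mobility shift. IC50 by non-linear regression of percent inhibition.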

[1] = tested on: Huh7 hepatocellular carcinoma cells; experiment: FGFR4 cell proliferation experiment, Cell Titer Glo (CTG); assay type: cell-based; conditions: HuH-7 cells, 3 days; for IC50: concentration leading to absolute half growth inhibition; for EC50: concentration leading to half maximal growth inhibition
Procedure, shortened: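 Cells treated with 5-fold serial dilutions starting at 10 μM for 3 days at 37° C, 5% CO2. Proliferation/survival quantified as cellular ATP by CellTiter-Glo luminescence.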

Chain of FGFR4 (P22455 22-802): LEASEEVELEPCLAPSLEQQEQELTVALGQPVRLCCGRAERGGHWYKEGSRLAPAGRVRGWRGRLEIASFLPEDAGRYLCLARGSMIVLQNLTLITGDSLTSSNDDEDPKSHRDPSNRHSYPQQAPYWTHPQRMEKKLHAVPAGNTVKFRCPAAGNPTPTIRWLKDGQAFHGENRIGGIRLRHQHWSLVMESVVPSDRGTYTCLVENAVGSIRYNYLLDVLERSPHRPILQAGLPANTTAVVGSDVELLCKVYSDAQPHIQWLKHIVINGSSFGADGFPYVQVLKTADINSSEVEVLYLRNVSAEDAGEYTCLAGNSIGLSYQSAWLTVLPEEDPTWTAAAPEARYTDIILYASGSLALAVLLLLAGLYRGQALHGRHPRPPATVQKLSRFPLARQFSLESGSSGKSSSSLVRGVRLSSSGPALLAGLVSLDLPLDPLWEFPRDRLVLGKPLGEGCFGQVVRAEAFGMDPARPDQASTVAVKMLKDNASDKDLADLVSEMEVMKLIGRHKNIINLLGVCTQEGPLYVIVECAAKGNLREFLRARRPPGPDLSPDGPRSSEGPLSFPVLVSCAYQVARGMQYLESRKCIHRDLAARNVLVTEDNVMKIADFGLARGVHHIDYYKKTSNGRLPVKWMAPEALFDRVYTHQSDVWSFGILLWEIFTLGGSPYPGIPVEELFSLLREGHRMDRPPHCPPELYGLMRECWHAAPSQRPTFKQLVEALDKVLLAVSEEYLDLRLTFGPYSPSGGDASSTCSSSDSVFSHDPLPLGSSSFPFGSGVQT

Molecule	IC50 (FGFR4) [nM]	IC50 ([1]; Homo sapiens, Huh-7, 72 h) [nM]	EC50 ([1]; Homo sapiens, Huh-7, 72 h) [nM]	IC50 [1] [nM]	EC50 [1] [nM]
C=CC(=O)N[C@H]1CCOC[C@H]1Nc1ncc2cc(-c3c(F)c(OC)cc(OC)c3F)nc(NC)c2n1 [Example 786, N-((3S,4S)-3-((6-(2,6-difluoro-3,5-dimethoxyphenyl)-8-(methylamino)py-rido[3,4-d]pyrimidin-2-yl)amino)tetra-hydro-2H-pyran-4-yl)acrylamide]	17	47.6	38.4		
C=CC(=O)N[C@H]1COC[C@H]1Nc1ncc2cc(-c3c(F)c(OC)cc(OC)c3F)nc(NCC)c2n1 [Example 767, N-((3R,4S)-4-((6-(2,6-difluoro-3,5-dimethoxyphenyl)-8-(ethylamino)pyri-do[3,4-d]pyrimidin-2-yl)amino)tetra-hydrofuran-3-yl)acrylamide]	7	45.1	23.9		
C=CC(=O)N[C@H]1COC[C@H]1Nc1ncc2cc(-c3c(Cl)c(OC)cc(OC)c3Cl)nc(NCCS(=O)(=O)CC)c2n1 [Example 429, N-((3R,4S)-4-((6-(2,6-dichloro-3,5-di-methoxyphenyl)-8-((2-(ethylsulfonyl)ethyl)amino)pyrido[3,4-d]pyrimidin-2-yl)amino)tetrahydrofuran-3-yl)acryl-amide]	22.4	184	63.2		
C=CC(=O)N[C@H]1COC[C@H]1Nc1ncc2cc(-c3c(Cl)c(OC)cc(OC)c3Cl)nc(N3CC(C)OC(C)C3)c2n1 (stereo partly drawn) [Example 690, N-((3R,4S)-4-((6-(2,6-dichloro-3,5-dimethoxyphenyl)-8-(2,6-dimethyl-morpholino)pyrido[3,4-d]pyrimidin-2-yl)amino)tetrahydrofuran-3-yl)acryl-amide]	8	12.1	8.4		
C=CC(=O)N[C@H]1COC[C@H]1Nc1ncc2cc(-c3cc(OC)cc(OC)c3Cl)nc(NCC3CC3)c2n1 [Example 475, N-((3R,4S)-4-((6-(2-chloro-3,5-dimeth-oxyphenyl)-8-((cyclopropylmethyl)a-mino)pyrido[3,4-d]pyrimidin-2-yl)a-mino)tetrahydrofuran-3-yl)acrylamide]	62	678	132		
C=CC(=O)N[C@H]1COC[C@H]1Nc1ncc2cc(-c3c(Cl)c(OC)cc(OC)c3Cl)nc(NCC3CCCC3)c2n1 [Example 454, N-((3R,4S)-4-((8-((cyclopentylmeth-yl)amino)-6-(2,6-dichloro-3,5-dimeth-oxyphenyl)pyrido[3,4-d]pyrimidin-2-yl)amino)tetrahydrofuran-3-yl)acryl-amide]	66.9	89.2	40.8		
C=CC(=O)N[C@H]1COC[C@H]1Nc1ncc2cc(-c3c(Cl)c(OC)cc(OC)c3Cl)nc(NCCCN(C)C)c2n1 [Example 432, N-((3R,4S)-4-((6-(2,6-dichloro-3,5-di-methoxyphenyl)-8-((3-(dimethylami-no)propyl)amino)pyrido[3,4-d]pyrimi-din-2-yl)amino)tetrahydrofuran-3-yl) acrylamide]	106	934	396		
C=CC(=O)N[C@H]1COC[C@H]1Nc1ncc2cc(-c3c(Cl)c(OC)cc(OC)c3Cl)nc(N3CC(F)(F)C3)c2n1 [Example 663, N-((3R,4S)-4-((6-(2,6-dichloro-3,5-dimethoxyphenyl)-8-(3,3-difluoroaze-tidin-1-yl)pyrido[3,4-d]pyrimidin-2-yl)amino)tetrahydrofuran-3-yl)acryl-amide]	4.5	3.5	2.3		
C=CC(=O)N[C@H]1COC[C@H]1Nc1ncc2cc(-c3c(F)c(OC)cc(OC)c3F)ncc2n1 [Example 120, N-((3R,4S)-4-((6-(2,6-difluoro-3,5-dime-thoxyphenyl)pyrido[3,4-d]pyrimidin-2-yl)amino)tetrahydrofuran-3-yl)acrylamide]	303	754	156		
N-((3S,4S)-3-((6-(2,6-dichloro-3,5-di- methoxyphenyl)-8-(methylamino)py- rido[3,4-d]pyrimidin-2-yl)amino)tetra- hydro-2H-pyran-4-yl)acrylamide [Example 510]	29			116	75.2
C=CC(=O)N[C@H]1CCOC[C@H]1Nc1ncc2cc(-c3c(F)c(OC)cc(OC)c3F)nc(N3CC4CC(C3)O4)c2n1 [Example 796, N-((3S,4S)-3-((8-(6-oxa-3-aza-bicyclo[3.1.1]heptan-3-yl)-6-(2,6-difluoro-3,5-dimethoxyphenyl)py-rido[3,4-d]pyrimidin-2-yl)a-mino)tetrahydro-2H-pyran-4-yl)acrylamide]	23	47.8	38		
C=CC(=O)N[C@H]1COC[C@H]1Nc1ncc2cc(-c3c(Cl)c(OC)cc(OC)c3Cl)nc(NCC(F)(F)F)c2n1 [Example 435, N-((3R,4S)-4-((6-(2,6-dichloro-3,5-di-methoxyphenyl)-8-((2,2,2-trifluoroeth-yl)amino)pyrido[3,4-d]pyrimidin-2-yl)amino)tetrahydrofuran-3-yl)acryl-amide]	67	148	80		
C=CC(=O)N[C@H]1COC[C@H]1Nc1ncc2cc(-c3cc(OC)cc(OC)c3Cl)ncc2n1 [Example 121, N-((3R,4S)-4-((6-(2-chloro-3,5-dime-thoxyphenyl)pyrido[3,4-d]pyrimidin-2-yl)amino)tetrahydrofuran-3-yl)acrylamide]	183	401	172		
C=CC(=O)N[C@H]1CCOC[C@H]1Nc1ncc2cc(-c3c(Cl)c(OC)cc(OC)c3Cl)nc(N3CC(OC)C3)c2n1 [Example 704, N-((3S,4S)-3-((6-(2,6-dichloro-3,5-di-methoxyphenyl)-8-(3-methoxyazeti-din-1-yl)pyrido[3,4-d]pyrimidin-2-yl)amino)tetrahydro-2H-pyran-4-yl)acrylamide]	8.5	20.2	17.2		
C=CC(=O)N[C@H]1COC[C@H]1Nc1ncc2cc(-c3c(F)c(OC)cc(OC)c3F)nc(N3CC(C)(OC)C3)c2n1 [Example 666, N-((3R,4S)-4-((6-(2,6-difluoro-3,5-dimethoxyphenyl)-8-(3-methoxy-3-methylazetidin-1-yl)pyrido[3,4-d]pyri-midin-2-yl)amino)tetrahydrofuran-3-yl)acrylamide]	4.5	4.6	3.2		
C=CC(=O)N[C@H]1COC[C@H]1Nc1ncc2cc(-c3c(Cl)c(OC)cc(OC)c3Cl)nc(N3CCC(OC)CC3)c2n1 [Example 693, N-((3R,4S)-4-((6-(2,6-dichloro-3,5-dimethoxyphenyl)-8-(4-methoxy-piperidin-1-l)pyrido[3,4-d]pyrimidin-2-yl)amino)tetrahydrofuran-3-yl)acryl-amide]	5.6	2.1	1.3		
C=CC(=O)Nc1cccc(C)c1Nc1cc2c(OC)nc(-c3c(Cl)c(OC)cc(OC)c3Cl)nc2cn1 [Example 10, N-(2-((2-(2,6-dichloro-3,5-dimethoxyphenyl)-4-methoxy-pyrido[3,4-d]pyrimidin-6-yl)amino)-3-methylphenyl) acrylamide]	105	4820	3520		
C=CC(=O)Nc1cccc(C)c1Nc1cc2c(=O)oc(-c3c(Cl)c(OC)cc(OC)c3Cl)cc2cn1 [Example 7, N-(2-((3-(2,6-dichloro-3,5-dimethoxyphenyl)-1-oxo-1 H-pyrano[4,3-c]pyridin-7-yl)amino)-3-methylphenyl) acrylamide]	28.9	> 10000	> 10000		
C=CC(=O)N[C@H]1COC[C@H]1Nc1ncc2cc(-c3c(F)c(OC)cc(OC)c3F)nc(N3CCC3)c2n1 [Example 774, N-((3R,4S)-4-((8-(azetidin-1-yl)-6-(2,6-difluoro-3,5-dimethoxyphenyl)py-rido[3,4-d]pyrimidin-2-yl)amino)tetra-hydrofuran-3-yl)acrylamide]	3.2	8.8	6.9		
C=CC(=O)N[C@H]1COC[C@H]1Nc1ncc2cc(-c3c(Cl)c(OC)cc(OC)c3Cl)nc(N3CC4(CCOCC4)C3)c2n1 [Example 675, N-((3R,4S)-4-((6-(2,6-dichloro-3,5-dimethoxyphenyl)-8-(7-oxa-2-azaspiro[3.5]nonan-2-yl)pyrido[3,4-d]pyrimidin-2-yl)amino)tetrahydrofuran-3-yl)acrylamide]	11	8.7	6.2		
C=CC(=O)Nc1cccc(C)c1Nc1cc2c(=O)n(CCOC)c(-c3c(Cl)c(OC)cc(OC)c3Cl)nc2cn1 [Example 11, N-(2-((2-(2,6-dichloro-3,5-dimethoxyphenyl)-3-(2-methoxyethyl)-4-oxo-3,4-dihydropyrido[3,4-d]pyrimidin-6-yl)amino)-3-methylphenyl) acrylamide]	101	4720	4720		
C=CC(=O)Nc1cnn(CCOC)c1-c1ncc2cc(-c3c(Cl)c(OC)cc(OC)c3Cl)ncc2n1 [Example 715, N-(5-(6-(2,6-dichloro-3,5-dimethoxyphenyl)pyrido[3,4-d]pyrimidin-2-yl)-1-(2-methoxyethyl)-1H-pyrazol-4-yl)acrylamide]	62.7	1920	1920		
C=CC(=O)N[C@H]1CCOC[C@H]1Nc1ncc2cc(-c3c(Cl)c(OC)cc(OC)c3Cl)nc(NCC3CC3)c2n1 [Example 501, N-((3S,4S)-3-((8-((cyclopropylmeth-yl)amino)-6-(2,6-dichloro-3,5-dimeth-oxyphenyl)pyrido[3,4-d]pyrimidin-2-yl)amino)tetrahydro-2H-pyran-4-yl)acrylamide]	15.7	49.9	17.8		
